# Patent US20230372542A1, “COMPOSITION AND METHODS FOR MODULATING TCF4 GENE EXPESSION AND TREATING PITT HOPKINS SYNDROME” (The Regents of the University of California, priority 2020, published 2023)
# Key:
# [1] = tested on: NPCs; test: p16INK4a+ (senescent) cells in NPCs treated with CHIR99021; type: cell-based, human; details: PTHS NPCs
# Protocol: For immunofluorescence labeling of NPCs, these cells were seeded at a density of 50,000 cells per well of a LabTek II 8-well chambered slide. When cells reached 50% confluency, they were fixed and processed for immunostaining in the same manner as described for iPSC colonies, with the following primary antibodies: rabbit anti-TCF4 (Abcam; ab217668; 1:1000); and chicken anti-vimentin (VIM) (Abcam; ab22651; 1:2000). NPCs were also stained to detect senescence associated P-galactosidase (SA-P-gal), using the CellEvent™ Senescence Green Detection Kit (Thermo Fisher Scientific; C10850) after antigen retrieval as described above. The same method described above for counting weakly and strongly stained SOX2+ cells after p16^INK4a co-staining was applied to NPCs.
# (§1) Wnt signaling manipulation. For manipulating the Wnt/β-catenin signaling pathway in NPCs, 200,000 cells were seeded on a 6-well plate, followed by treatment with specific agonist CHIR99021 (1 μM) for 4 days. Controls were treated with DMSO (CHIR diluent) at the same concentration and for the same duration. […] In all cases, treated cells were assayed to measure activity of the Wnt pathway via transfection with the TOP-Flash plasmids described herein. For all experiments, 3 biological replicates were used per subject line, and similar results were obtained in at least 3 independent experiments.
# [2] = tested on: NPCs; test: RT-qPCR gene expression in NPCs after Wnt signaling manipulation; type: cell-based, human
# Protocol: Real time quantitative PCR. Total RNA was extracted using RNeasy Mini Plus kit (Qiagen), followed by DNase I treatment on the column, as per the manufacturer's recommendations. Two and a half micrograms of total RNA were reverse transcribed into cDNA using the Superscript III First-Strand Reverse Transcription System (Thermo Fisher Scientific). Real-time quantitative PCR (RT-qPCR) was performed using pre-validated FAM-MGB TaqMan probes (Thermo Fisher Scientific) and the TaqMan universal master mix II without UNG (Thermo Fisher Scientific) on a CFX Connect Real Time PCR detection system (Bio-Rad), with the following cycling parameters: 94° C. for 3 min, followed by 40 cycles of 94° C. for 30 s and 68° C. for 1 min. Amplification and denaturation curves for all probes were analyzed to verify amplification of just one amplicon. All RT-qPCR analyses were conducted using RNA extracted from at least 3 independent biological samples per subject/condition, and normalized to the following endogenous control genes (TBP, ACTB, and GAPDH). Relative expression was calculated using the traditional ΔΔCt method.
# as §1, with “herein.” for “herein. For all experiments, 3 biological replicates were used per subject line, and similar results were obtained in at least 3 independent experiments.”
# [3] = PTHS NPCs in 2D culture, CHIR (FIG. 16K)
structure (smiles),measurement,setting,value
Cc1c[nH]c(-c2cnc(NCCNc3ccc(C#N)cn3)nc2-c2ccc(Cl)cc2Cl)n1 [CHIR99021],percentage of p16INK4a senescent cells,[1],decreased the percentage
same,PCDH15 expression,"[2]; NPCs, CHIR99021 (FIG. 16N)",further reduces its expression
same,expression of TCF4,[2]; [3],increased
same,expression of TCF4 downstream targets (GADD45G),[2]; [3],increased
same,expression of pro-proliferative gene HES1,"[2]; PTHS NPCs, CHIR99021 (FIG. 9J)",increased the expression
same,expression of proneural gene ASCL1,"[2]; PTHS NPCs, CHIR99021 (FIG. 9J)",increased the expression
same,expression of proneural gene NEUROD1,"[2]; PTHS NPCs, CHIR99021 (FIG. 9J)",increased the expression
same,SOX3 expression,"[2]; PTHS progenitors, CHIR99021 (FIG. 10F)",increased SOX3 expression
